13 compounds from patent US20140057915A1, “KINASE INHIBITORS” (TOPIVERT PHARMA LIMITED, priority 2012, published 2014) can be followed below.

Molecules are shown by their SMILES. Like-named read-outs stand apart in the source and are kept apart here.

A word on the IC50: it is the midpoint of a concentration-inhibition curve.

For one test, the system named is IL-8 release, PBMCs. Put plainly: LPS-induced IL-8 release in PBMC cells. The note with it: Homo sapiens, LPS stimulated, read-out: IC50 Values for Inhibition of Cytokine Release, PBMCs, IL-8. Format: cell-based. The gist of the method:
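PBMCs from healthy donors pretreated with compound for 2 h, then stimulated with 1 ng/ml LPS (E. coli 0111:B4) for 24 h at 37 °C, 5% CO2. Supernatant IL-8 and TNFα measured by sandwich ELISA with fluorescence read-out.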

For test [1], the system named is TNFα release, d-U937 cells. Put plainly: LPS-induced TNFα release in d-U937 cells. Format: cell-based. As to conditions: Homo sapiens, dU937; for IC50: Table 4c2, different laboratory, read-out: IC50 Values for Inhibition of Cytokine Release, dU937 cells, TNFα; for EC50: relative to 10 μg/mL BIRB796, Table 4c1, read-out: LPS Induced Release of Cytokine in d-U937 Cells, TNFα REC50. Summed up:
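U937 cells differentiated with PMA (100 ng/mL, 48–72 hr), pre-treated with compound for 2 hr, then stimulated with E. coli LPS (0.1 μg/mL) for 4 hr. Supernatant cytokine measured by sandwich ELISA; inhibition versus vehicle control, REC50 from concentration-response curve.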

The next test relates to PBMC cells. Briefly: Cell mitosis assay. Type of test: cell-based. As to conditions: Homo sapiens, read-out: % Inhibition of mitosis in PBMC cells at 5 μg/mL. Summed up: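 Healthy-donor PBMCs (3 million cells per sample) stimulated with 2% PHA for 48 hr, then exposed 20 hr to varying compound concentrations. Demecolcine (0.1 μg/mL) added 2 hr before collection to arrest cells in metaphase; read by flow cytometry gated on lymphocytes.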

In test [2] the test system is ICAM-1 expression, BEAS2B cells. Put plainly: Poly I:C-induced ICAM-1 expression in BEAS2B cells. Format: cell-based. As to conditions: Homo sapiens, BEAS-2B; read-out: Poly IC induced ICAM1 in BEAS2B, IC50. The gist of the method: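 BEAS2B human bronchial epithelial cells pre-incubated 2 h with compound, then transfected with poly I:C (1 μg/mL) plus Oligofectamine. After 18 h, cell-surface ICAM-1 read by cell-based ELISA (A450–655), normalised to Crystal Violet cell number (A595); inhibition calculated against vehicle control at each concentration.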

In test [3] the test system is IL-8 release, d-U937 cells. Put plainly: LPS-induced IL-8 release in d-U937 cells. Format: cell-based. As to conditions: Homo sapiens, dU937. Summed up:
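IL-8 release after a 4 hr challenge with LPS (0.1 μg/mL, E. coli 0111:B4) following a 2 hr compound pretreatment. Cells were human U937 monocytes differentiated to macrophage-type with PMA 100 ng/mL for 48–72 hr. Relative 50% effective concentration derived from concentration–response data.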

The next test concerns the target cSrc (Homo sapiens, UniProt P12931). Briefly: c-Src enzyme inhibition (FRET). Type of test: biochemical. The gist of the method: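 2 hr RT enzyme + cpd (added solns 4/0.4/0.04/0.004 μg/mL); + FRET peptide (8 μM soln) + ATP soln (c-Src 800 μM, Syk 60 μM), 1 hr; protease development 1 hr; read donor/acceptor emission ratio.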
Setting [4] is: Table 4c1, read-out: LPS Induced Release of Cytokine in d-U937 Cells, IL-8 IC50.
The mark [5] stands for this setting: Table 4c2, different laboratory, read-out: IC50 Values for Inhibition of Cytokine Release, dU937 cells, IL-8.
Where [6] appears, read: Table 4a2, different laboratory.

cSrc, sequence (P12931 whole entry): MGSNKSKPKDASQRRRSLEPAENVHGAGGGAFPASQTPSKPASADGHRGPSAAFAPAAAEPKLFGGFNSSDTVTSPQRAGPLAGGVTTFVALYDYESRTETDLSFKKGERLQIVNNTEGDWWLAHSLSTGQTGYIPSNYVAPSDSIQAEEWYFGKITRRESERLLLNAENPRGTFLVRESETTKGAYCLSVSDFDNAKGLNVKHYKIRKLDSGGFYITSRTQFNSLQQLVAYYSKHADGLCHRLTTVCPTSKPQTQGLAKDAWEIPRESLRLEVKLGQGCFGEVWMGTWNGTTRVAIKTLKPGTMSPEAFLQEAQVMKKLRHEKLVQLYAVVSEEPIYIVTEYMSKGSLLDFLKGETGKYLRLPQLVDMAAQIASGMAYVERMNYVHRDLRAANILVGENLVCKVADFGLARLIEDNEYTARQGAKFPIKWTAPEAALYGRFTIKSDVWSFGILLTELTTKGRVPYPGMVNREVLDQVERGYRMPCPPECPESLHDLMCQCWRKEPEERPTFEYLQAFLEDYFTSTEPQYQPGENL

As for `COc1cc(Nc2cc(Oc3ccc(NC(=O)Nc4cc(C(C)(C)C)nn4-c4ccc(C)cc4)c4ccccc34)ccn2)cc(C(=O)NCCN2CCOCC2)c1` [Example 1, 3-((4-((4-(3-(3-(tert-Butyl)-1-(p-tolyl)-1H-pyrazol-5-yl)ureido)naphthalen-1-yl)oxy)pyridin-2-yl)amino)-5-methoxy-N-(2-morpholinoethyl)benzamide], the half-maximal inhibitory concentration (IC50) stood at 2.4 nM in the test on IL-8 release, PBMCs; 2.1 nM in test [1]; 3.4 nM in test [2]; 1.8 nM in test [3] (setting [4]); 2.8 nM in test [3] (setting [5]); 5 nM against cSrc (Table 4a1). On cSrc (setting [6]), this compound came in with a 50% inhibitory concentration (IC50) of 27 nM. In addition, the EC50 in test [1] amounted to 0.7 nM. For the same compound, the inhibition at 5 µg/mL in the test with PBMC cells worked out at 39.3%.

For the compound `COc1cc(Nc2nccc(Oc3ccc(NC(=O)Nc4cc(C5CC5)nn4-c4ccc(C)cc4)c4ccccc34)n2)cc(C(=O)NCCN2CCOCC2)c1` [Example 50, 3-((4-((4-(3-(3-cyclopropyl-1-(p-tolyl)-1H-pyrazol-5-yl)ureido)naphthalen-1-yl)oxy)pyrimidin-2-yl)amino)-5-methoxy-N-(2-morpholinoethyl)benzamide], the IC50 in the test with IL-8 release, PBMCs is 7.3 nM; in test [2], 16.6 nM; in test [3] (setting [4]), 8 nM; against cSrc (Table 4a1), below 1 nM. Further, in test [1], the EC50 stood at 5.2 nM.

Take `COc1cc(Nc2nccc(Oc3ccc(NC(=O)Nc4cc(C(C)C)nn4-c4ccc(C)cc4)c4ccccc34)n2)cc(C(=O)NCCN2CCOCC2)c1` [Example 8, 3-((4-((4-(3-(3-Isopropyl-1-(p-tolyl)-1H-pyrazol-5-yl)ureido)naphthalen-1-yl)oxy)pyrimidin-2-yl)amino)-5-methoxy-N-(2-morpholinoethyl)benzamide]: the IC50 is 1.8 nM with IL-8 release, PBMCs; 1.1 nM in test [1]; 1.1 nM in test [2]; 0.3 nM in test [3] (setting [4]); 1.4 nM in test [3] (setting [5]); below 1 nM on cSrc (Table 4a1). Also, the midpoint of inhibition against cSrc (setting [6]), the IC50, lay at 41 nM. Further, the EC50 in test [1] was found to be 0.8 nM. Moreover, the inhibition at 5 µg/mL in the test with PBMC cells was 15.3%.

`Cc1ccc(-n2nc(C(C)C)cc2NC(=O)Nc2ccc(Oc3ccnc(Nc4cc(C(=O)NCCN5CCOCC5)cc(C(F)(F)F)c4)n3)c3ccccc23)cc1` [Example 7, 3-((4-((4-(3-(3-isopropyl-1-(p-tolyl)-1H-pyrazol-5-yl)ureido)naphthalen-1-yl)oxy)pyrimidin-2-yl)amino)-N-(2-morpholinoethyl)-5-(trifluoromethyl)benzamide]: the IC50 in the test on IL-8 release, PBMCs was determined as 2.4 nM; in test [1], 2.7 nM; in test [2] it was 1.5 nM; in test [3] (setting [4]), 1.5 nM; against cSrc (Table 4a1) it was 13 nM; on cSrc (setting [6]), 27 nM. In test [1], the EC50 is 0.2 nM. For the same compound, the inhibition at 5 µg/mL in the test on PBMC cells amounted to 20.6%.

Regarding `C#Cc1cc(Nc2nccc(Oc3ccc(NC(=O)Nc4cc(C(C)(C)C)nn4-c4ccc(OC)cc4)c4ccccc34)n2)cc(C(=O)NCCN2CCOCC2)c1` [Example 77, 3-((4-((4-(3-(3-(tert-Butyl)-1-(4-methoxyphenyl)-1H-pyrazol-5-yl)ureido)-naphthalen-1-yl)oxy)pyrimidin-2-yl)amino)-5-ethynyl-N-(2-morpholinoethyl)benzamide], the IC50 was 1.1 nM in the test on IL-8 release, PBMCs; 0.4 nM in test [1]; 0.9 nM in test [3] (setting [5]); 12 nM on cSrc (setting [6]). Also, in the test on PBMC cells, the inhibition at 5 µg/mL was -0.3%.

On to `COc1ccc(-n2nc(C(C)(C)C)cc2NC(=O)Nc2ccc(Oc3ccnc(Nc4cc(Br)cc(C(N)=O)c4)n3)c3ccccc23)cc1` [Example 42, 3-bromo-5-((4-((4-(3-(3-(tert-butyl)-1-(4-methoxyphenyl)-1H-pyrazol-5-yl)ureido)naphthalen-1-yl)oxy)pyrimidin-2-yl)amino)benzamide], for which the EC50 in test [1] amounted to 1.5 nM. Besides, in the test on PBMC cells, the inhibition at 5 µg/mL was found to be 12.9%. Also, the IC50 in test [2] was determined as 2.3 nM; in test [3] (setting [4]), 2 nM; against cSrc (Table 4a1), 20 nM.

Turning to `COc1cc(Nc2nccc(Oc3ccc(NC(=O)Nc4cc(C5(C)CC5)nn4-c4ccc(C)cc4)c4ccccc34)n2)cc(C(=O)NCCN2CCOCC2)c1` [Example 51, 3-methoxy-5-((4-((4-(3-(3-(1-methylcyclopropyl)-1-(p-tolyl)-1H-pyrazol-5-yl)ureido)naphthalen-1-yl)oxy)pyrimidin-2-yl)amino)-N-(2-morpholinoethyl)benzamide], the EC50 in test [1] was 1 nM. Besides, the inhibition at 5 µg/mL with PBMC cells was found to be 20%. The values for the concentration for half-maximal inhibition (IC50) (in test [2]; in test [3] (setting [4]); against cSrc (Table 4a1)) were 3.6 nM, 0.6 nM and below 1 nM, respectively.

As for `COc1ccc(-n2nc(C(C)C)cc2NC(=O)Nc2ccc(Oc3ccnc(Nc4cc(OC)cc(C(=O)NCCN5CCOCC5)c4)n3)c3ccccc23)cc1` [Example 53, 3-((4-((4-(3-(3-isopropyl-1-(4-methoxyphenyl)-1H-pyrazol-5-yl)ureido)naphthalen-1-yl)oxy)pyrimidin-2-yl)amino)-5-methoxy-N-(2-morpholinoethyl)benzamide], the IC50 in the test on IL-8 release, PBMCs was 3.1 nM; in test [1], 0.7 nM; in test [2] it was 4 nM; in test [3] (setting [4]), 1.1 nM; against cSrc (Table 4a1), below 1 nM; against cSrc (setting [6]), 8 nM. For the same compound, the EC50 in test [1] is 0.3 nM. Besides, in the test on PBMC cells, the inhibition at 5 µg/mL was 39.4%.

`C#Cc1cc(Nc2nccc(Oc3ccc(NC(=O)Nc4cc(C(C)(C)C)nn4-c4ccc(N(C)C)cc4)c4ccccc34)n2)cc(C(=O)NCCN2CCOCC2)c1` [Example 80, 3-((4-((4-(3-(3-(tert-Butyl)-1-(4-(dimethylamino)phenyl)-1H-pyrazol-5-yl)ureido)naphthalen-1-yl)oxy)pyrimidin-2-yl)amino)-5-ethynyl-N-(2-morpholinoethyl)-benzamide]: the IC50 in the test on IL-8 release, PBMCs worked out at 1.5 nM; in test [1] it was 0.3 nM; in test [3] (setting [5]) it was 0.5 nM; against cSrc (setting [6]) it was 19 nM. Besides, in the test with PBMC cells, the inhibition at 5 µg/mL turned out to be 10.4%.

With `COc1cc(Nc2nccc(Oc3ccc(NC(=O)Nc4cc(C(F)(F)C(F)(F)F)nn4-c4ccc(C)cc4)c4ccccc34)n2)cc(C(=O)NCCN2CCOCC2)c1` [Example 9], the IC50 with IL-8 release, PBMCs was 2.3 nM; in test [2], 6.9 nM; in test [3] (setting [4]), 1.4 nM; at cSrc (Table 4a1) it was 2 nM; at cSrc (setting [6]), 21 nM. In addition, the EC50 in test [1] was determined as 0.9 nM. Further, in the test with PBMC cells, the inhibition at 5 µg/mL is 20.7%.

As to `C#Cc1cc(Nc2nccc(Oc3ccc(NC(=O)Nc4cc(C(C)C)nn4-c4ccc(C)cc4)c4ccccc34)n2)cc(C(=O)NCCN2CCOCC2)c1` [Example 46, 3-ethynyl-5-((4-((4-(3-(3-isopropyl-1-(p-tolyl)-1H-pyrazol-5-yl)ureido)naphthalen-1-yl)oxy)pyrimidin-2-yl)amino)-N-(2-morpholinoethyl)benzamide], the concentration for half-maximal inhibition (IC50) in the test with IL-8 release, PBMCs was 1.1 nM; in test [1], 1.1 nM; in test [3] (setting [5]) it was 2.4 nM; at cSrc (setting [6]), 14 nM. Moreover, the inhibition at 5 µg/mL with PBMC cells is -6.7%.

`COc1ccc(-n2nc(C3(C)COC3)cc2NC(=O)Nc2ccc(Oc3ccnc(Nc4cccc(C(=O)NCCN5CCOCC5)c4)n3)c3ccccc23)cc1` [Example 23, 3-((4-((4-(3-(1-(4-methoxyphenyl)-3-(3-methyloxetan-3-yl)-1H-pyrazol-5-yl)ureido)naphthalen-1-yl)oxy)pyrimidin-2-yl)amino)-N-(2-morpholinoethyl)benzamide]: the EC50 in test [1] amounted to 5.2 nM. For the same compound, the inhibition at 5 µg/mL with PBMC cells worked out at 35.6%. The concentration for half-maximal inhibition (IC50) in test [2] is 27.7 nM; in test [3] (setting [4]), 2.3 nM; against cSrc (Table 4a1), below 1 nM.

For `COCCNC(=O)c1cc(Nc2nccc(Oc3ccc(NC(=O)Nc4cc(C(C)C)nn4-c4ccc(OC)cc4)c4ccccc34)n2)cc(OC)c1` [Example 11, 3-((4-((4-(3-(3-Isopropyl-1-(4-methoxyphenyl)-1H-pyrazol-5-yl)ureido)naphthalen-1-yl)oxy)pyrimidin-2-yl)amino)-5-methoxy-N-(2-methoxyethyl)benzamide], the half-maximal inhibitory concentration (IC50) came out at 3 nM with IL-8 release, PBMCs; 0.3 nM in test [1]; 1.2 nM in test [2]; 1.3 nM in test [3] (setting [4]); 8 nM at cSrc (Table 4a1); 15 nM at cSrc (setting [6]). Further, in test [1], the EC50 amounted to 0.2 nM. Besides, the inhibition at 5 µg/mL with PBMC cells was determined as 50.7%.
